From US12268227B2, “Production of flavor concentrates by osmosis” (SYMRISE AG, priority 2017, dated 2025)
Read-outs that look alike come from different tables or passages of the source.

Tests used:
[1] = Odour threshold concentration in water
Procedure: The OAV value is defined as a measure of the significance of a specific component in the odour of a sample, for example, a foodstuff. The OAV value is calculated by dividing the concentration of a specific substance in the food (mg/kg) by the concentration threshold value of this substance in the food (mg/kg). If the OAV>1, the concentration of the substance exceeds the odour threshold concentration and the substance then makes a sensorial contribution to the overall profile.
The sensory recovery coefficient (SWF) of an aroma substance is composed of the log P of the aroma substance and the odour threshold concentration of the aroma substance (mg/kg in water) and is defined as follows: […]

[2] = log P (n-octanol/water partition coefficient) of aroma substances; type: physicochemical
Description: [formula] • wherein: • C (n-octanol) is the concentration of the aroma substance in the n-octanol phase; and • C (water) is the concentration of the aroma substance in the water phase. The log K(n-octanol/water) is a dimensionless partition coefficient which indicates the ratio of the concentration of the aroma substance in a two-phase system of n-octanol and water. It is thus a model measure of the polarity or water/fat solubility of the aroma substance. Log P is a common physical parameter and is positive for lipophilic aroma substances and negative for hydrophilic aroma substances. The W parameter is therefore defined as follows: W=log10(SWF)

Q: With `CCCCCC(=O)OCC` [ethyl hexanoate] as the molecule, how does the Threshold ([1]; odour threshold concentration) read?
A: 5 µg/kg in water

Q: What about the logP ([2]; read-out: logP) of the same molecule?
A: 2.41

Q: With `CC(=O)O` [acetic acid] as the molecule, how does the Threshold ([1]; odour threshold concentration) read?
A: 180000 mg/kg in water

Q: With `CCCCCCO` [hexanol] as the molecule, how does the Threshold ([1]; odour threshold concentration) read?
A: 50 µg/kg in water

Q: With `CCC(C)C=O` (stereo not drawn) [2-methylbutyraldehyde] as the molecule, how does the Threshold ([1]; odour threshold concentration) read?
A: 0.9 µg/kg in water

Q: And the logP ([2]; read-out: logP)?
A: 1.4

Q: Which results are given for `CC(=O)C(C)=O` [2,3-butanedione]?
A: Threshold ([1]; odour threshold concentration): 54 µg/kg in water; logP ([2]; read-out: logP): -0.508

Q: With `CO` [methanol] as the molecule, how does the Threshold ([1]; odour threshold concentration) read?
A: 369828 mg/kg in water

Q: What about the logP ([2]; read-out: logP) of the same molecule?
A: -0.358

Q: Which Threshold ([1]; odour threshold concentration) does the source give for `CCOC(C)=O` [ethyl acetate] here?
A: 3120 µg/kg in water

Q: With `CC/C=C\CCO` [cis-3-hexenol] as the molecule, how does the logP ([2]; read-out: logP) read?
A: 1.44

Q: With `CC(C)=CCC/C(C)=C/C=O` [geranial] as the molecule, how does the Threshold ([1]; odour threshold concentration) read?
A: 320 µg/kg in water

Q: And the logP ([2]; read-out: logP)?
A: 3.19

Q: For `CCC(=O)C(C)=O` [2,3-pentanedione], which Threshold ([1]; odour threshold concentration) is on record?
A: 5 µg/kg in water

Q: What about the logP ([2]; read-out: logP) of the same molecule?
A: 0.159

Q: Which Threshold ([1]; odour threshold concentration) does the source give for `CCCC(=O)O` [butyric acid] here?
A: 1000 µg/kg in water

Q: Which results are given for `CC=O` [acetaldehyde]?
A: Threshold [1]: 63 µg/kg in water; logP ([2]; read-out: logP): -0.182

Q: For `CCCCC1CCC(=O)O1` (stereo not drawn) [gamma-octalactone], which Threshold ([1]; odour threshold concentration) is on record?
A: 24 µg/kg in water

Q: What about the logP [2] of the same molecule?
A: 2.0901

Q: With `CCCO` [propanol] as the molecule, how does the Threshold [1] read?
A: 5700 µg/kg in water

Q: For `CCC=O` [propanal], which Threshold ([1]; odour threshold concentration) is on record?
A: 170 µg/kg in water

Q: What about the logP ([2]; read-out: logP) of the same molecule?
A: 0.484

Q: For `CCCC(=O)OCC` [ethyl butanoate], which Threshold ([1]; odour threshold concentration) is on record?
A: 1 µg/kg in water

Q: What about the logP ([2]; read-out: logP) of the same molecule?
A: 1.49

Q: Which Threshold ([1]; odour threshold concentration) does the source give for `CCCCCC(=O)O` [hexanoic acid] here?
A: 3940 µg/kg in water

Q: And the logP ([2]; read-out: logP)?
A: 1.81

Q: Which results are given for `CCCCCC=O` [hexanal]?
A: Threshold ([1]; odour threshold concentration): 16 µg/kg in water; logP ([2]; read-out: logP): 1.85

Q: What does the source list for `C=CC(C)(O)CCC=C(C)C` (stereo not drawn) [linalool]?
A: Threshold ([1]; odour threshold concentration): 103 µg/kg in water; logP ([2]; read-out: logP): 2.74

Q: With `CCO` [ethanol] as the molecule, how does the Threshold ([1]; odour threshold concentration) read?
A: 52000 mg/kg in water
